pEC50: −log10 of the molar value. Where two headings read alike, the source gives them in different places.

Test [1] deals with T1, Hco ACR-16/hRIC3 cell line (Haemonchus contortus, UniProt A9Y2C3).
T1 sequence (A9Y2C3 1-494): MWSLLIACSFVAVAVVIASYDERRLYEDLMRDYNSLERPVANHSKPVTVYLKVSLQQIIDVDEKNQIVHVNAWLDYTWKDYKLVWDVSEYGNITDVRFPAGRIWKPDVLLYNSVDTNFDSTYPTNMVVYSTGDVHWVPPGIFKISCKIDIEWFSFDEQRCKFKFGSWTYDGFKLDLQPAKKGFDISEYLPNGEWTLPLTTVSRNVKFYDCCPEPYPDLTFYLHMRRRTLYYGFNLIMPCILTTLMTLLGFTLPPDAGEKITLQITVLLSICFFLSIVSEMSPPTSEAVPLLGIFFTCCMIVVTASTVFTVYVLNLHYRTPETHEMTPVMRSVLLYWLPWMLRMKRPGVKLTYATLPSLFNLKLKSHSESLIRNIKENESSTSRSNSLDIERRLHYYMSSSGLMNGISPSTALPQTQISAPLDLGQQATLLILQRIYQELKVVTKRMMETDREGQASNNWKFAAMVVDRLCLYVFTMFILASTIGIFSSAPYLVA
T1 sequence (Q7Z5B4 29-369 partner): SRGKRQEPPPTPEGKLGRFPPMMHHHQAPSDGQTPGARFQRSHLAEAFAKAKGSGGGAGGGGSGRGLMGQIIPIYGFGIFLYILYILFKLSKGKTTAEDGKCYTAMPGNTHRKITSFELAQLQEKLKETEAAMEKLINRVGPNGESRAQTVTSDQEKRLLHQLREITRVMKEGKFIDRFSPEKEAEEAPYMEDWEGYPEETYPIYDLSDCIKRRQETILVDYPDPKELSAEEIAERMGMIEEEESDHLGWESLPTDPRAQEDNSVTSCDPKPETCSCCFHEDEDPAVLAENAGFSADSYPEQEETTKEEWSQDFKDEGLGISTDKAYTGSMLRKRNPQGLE
In words: Ca2+ measurement in 384-well plate format on FDSS6000 (Fluo-4AM). It counts as cell-based.

Test [2] concerns Hco ACR-16/hRIC3 stable cell line (Flp-In-293-Hco ACR-16 hRic3). It counts as cell-based, Haemonchus contortus. Details: AUC, Mean / AUC, Median: unit not given beside the values.
Test [3] has as its system Dim ACR-16/Dim RIC3 stable cell line. In words: Ca2+ measurement in 384-well plate format on FDSS6000 (Fluo-4AM). Format: cell-based, Dirofilaria immitis.
Test [4] addresses T2, Hco ACR-16/Hco RIC3 stable cell line (Haemonchus contortus, UniProt A9Y2C3).
T2 sequence (A9Y2C3 1-494): T1 sequence (A9Y2C3 1-494)
The description is as above. Format: cell-based.

In the case of `CC(=O)OCC[N+](C)(C)C` [Acetylcholine], the pEC50 in test [1] was 6.32.

With `Clc1ccc(C2CC3CCC2N3)cn1` (stereo not drawn) [Epibatidine], the “AUC, Mean” value in test [2] came out at 271.25. Also, the “AUC, Median” value in test [2] is given as 253.67. Besides, the “Ratio, Mean” value in test [2] is 2.51. Also, in test [2], the “Ratio, Median” value is reported as 2.15. The “Rmax, Mean” value in test [2] came out at 2.62. The “Rmax, Median” value in test [2] is listed as 2.34. In addition, the “Rmin, Mean” value in test [2] is 1.02. In test [2], the “Rmin, Median” value was determined as 1.04. The “Signal amplitude with 10 μM PNU120596 + 300 nM epibatidine application” value in test [3] amounted to 450 RFU; in test [4] (24 h @ 37° C.), 680 RFU; in test [4] (24 h @ 37° C. + 24 h @ 30° C.) it was 1601 RFU; in test [1] (24 h @ 37° C.), 1503 RFU; in test [1] (24 h @ 37° C. + 24 h @ 30° C.), 2160 RFU. Moreover, the pEC50 in test [3] (read-out: EC50 (FIG. 10, FIG. 11)) was 8.00; in test [3] (read-out: EC50 value) it was 8.30; in test [4] it was 8.30; in test [1] it was 8.22.

Take `CN1CCCC1c1cccnc1` (stereo not drawn) [Nicotine]: the pEC50 was 6.46 in test [3] (read-out: EC50 (FIG. 10, FIG. 11), orthosteric reference agonist, concentration response curve); 6.40 in test [3] (read-out: EC50 value, Revealed by co-application of PNU-120956); 6.70 in test [1].

Take `COc1cc(OC)c(NC(=O)Nc2cc(C)on2)cc1Cl` [PNU-120956]: the pEC50 in test [3] (allosteric modulator response curve, read-out: EC50 (FIG. 12)) is 5.62; in test [4] (Revealed by co-application of EC100 orthosteric reference agonist, read-out: EC50 value) it was 5.85; in test [1] (four-parameter logistic fit, cell line not named in legend, read-out: XC50 from concentration-response curve (FIG. 8)), 6.80.
